Source: patent US9493455B2, “Azaindole derivatives as inhibitors of protein kinases” (ORIBASE PHARMA, priority 2012, dated 2016)
pEC50: −log10 of the molar value.

Key:
ABL = biological target: T1, ABL (Homo sapiens, UniProt P00519); assay: In vitro kinase assay (Z′-LYTE); type: biochemical; conditions: read-out: % of inhibition of the kinase compared to the control
T1 construct: purchased Invitrogen
Method: (§1) The inhibitory activity of the compounds on several kinases including BRAF, EGFR (ErbB1), EGFR (ErbB1) T790M L858R, FGFR2, KDR (VEGFR2), PDGFRA (PDGFR alpha), SRC and other was evaluated by Invitrogen using the Z′-LYTE® technology. Briefly, the Z′-LYTE® biochemical assay employs a fluorescence-based, coupled-enzyme format and is based on the differential sensitivity of phosphorylated and non-phosphorylated peptides to proteolytic cleavage. The peptide substrate is labeled with two fluorophores—one at each end—that make up a FRET pair. A ratiometric method, which calculates the ratio (the Emission Ratio) of donor emission to acceptor emission after excitation of the donor fluorophore at 400 nm, is used to quantitate reaction progress.
(§2) The compounds are screened in 1% DMSO (final) in the well. For 10 point titrations, 3-fold serial dilutions are conducted from the starting concentration. All Peptide/Kinase Mixtures are diluted to a 2× working concentration in the appropriate Kinase Buffer. All ATP Solutions are diluted to a 4× working concentration in Kinase Buffer (50 mM HEPES pH 7.5, 0.01% BRIJ-35, 10 mM MgCl2, 1 mM EGTA). ATP Km apparent is previously determined using a Z′-LYTE® assay.
(§3) Each compound was incubated at a concentration of 100 nM (excepted to test the activity against ABL and ABL T315I for which the compounds were incubated at a concentration of 10 μM) and the tables B1 to B12 summarize the results obtained showing the inhibitory power of a compound. The inhibitory activity of OR0512 was also investigated using the same assays and the kinases for which activity was inhibited at more than 50% at the concentration of 100 nM of OR0512 are listed in the table B13.

ABL T315I = biological target: T2, ABL T315I (Homo sapiens, UniProt P00519, T315I); assay: In vitro kinase assay (Z′-LYTE); type: biochemical; conditions: read-out: % of inhibition of the kinase compared to the control
T2 construct: purchased Invitrogen
Method: as §1, §2, §3

BRAF = biological target: T3, BRAF (Homo sapiens, UniProt P15056); assay: In vitro kinase assay (Z′-LYTE); type: biochemical; conditions: compound 100 nM; ATP 100 μM; read-out: % of inhibition of the kinase compared to the control
T3 construct: purchased Invitrogen
Method: as §1, §2, §3

EGFR (ErbB1) = biological target: T4, EGFR (ErbB1) (Homo sapiens, UniProt P00533); assay: In vitro kinase assay (Z′-LYTE); type: biochemical; conditions: read-out: % of inhibition of the kinase compared to the control
T4 construct: purchased Invitrogen
Method: as §1, §2, §3

EGFR (ErbB1) T790M L858R = biological target: T5, EGFR (ErbB1) T790M L858R (Homo sapiens, UniProt P00533, L858R/T790M); assay: In vitro kinase assay (Z′-LYTE); type: biochemical; conditions: read-out: % of inhibition of the kinase compared to the control
T5 construct: purchased Invitrogen
Method: as §1, §2, §3

FGFR1 = biological target: T6, FGFR1 (Homo sapiens, UniProt P11362); assay: In vitro kinase assay (Z′-LYTE); type: biochemical; conditions: read-out: % of inhibition of the kinase compared to the control
T6 construct: purchased Invitrogen
Method: as §1, §2, §3

FGFR2 = biological target: T7, FGFR2 (Homo sapiens, UniProt P21802); assay: In vitro kinase assay (Z′-LYTE); type: biochemical; conditions: read-out: % of inhibition of the kinase compared to the control
T7 construct: purchased Invitrogen
Method: as §1, §2, §3

KDR (VEGFR2) = biological target: T8, KDR (VEGFR2) (Homo sapiens, UniProt P35968); assay: In vitro kinase assay (Z′-LYTE); type: biochemical; conditions: read-out: % of inhibition of the kinase compared to the control
T8 construct: purchased Invitrogen
Method: as §1, §2, §3

PDGFRA (PDGFR alpha) = biological target: T9, PDGFRA (PDGFR alpha) (Homo sapiens, UniProt P16234); assay: In vitro kinase assay (Z′-LYTE); type: biochemical; conditions: read-out: % of inhibition of the kinase compared to the control
T9 construct: purchased Invitrogen
Method: as §1, §2, §3

PDGFRB = biological target: T10, PDGFRB (Homo sapiens, UniProt P09619); assay: In vitro kinase assay (Z′-LYTE); type: biochemical; conditions: read-out: % of inhibition of the kinase compared to the control
T10 construct: purchased Invitrogen
Method: as §1, §2, §3

SRC = biological target: T11, SRC (Homo sapiens, UniProt P12931); assay: In vitro kinase assay (Z′-LYTE); type: biochemical; conditions: read-out: % of inhibition of the kinase compared to the control
T11 construct: purchased Invitrogen
Method: as §1, §2, §3

VEGFR1 = biological target: T12, VEGFR1 (Homo sapiens, UniProt P17948); assay: In vitro kinase assay (Z′-LYTE); type: biochemical; conditions: read-out: % of inhibition of the kinase compared to the control
T12 construct: purchased Invitrogen
Method: as §1, §2, §3

A549 = assay: In vitro cell proliferation assay (MTT); type: cell-based; conditions: Homo sapiens, A549, 72 h
Method: (§4) Cancer cell lines (5×10^3 cells per well) or HUVEC (1×10^4 cells per well) or HRMEC (1×10^4 cells per well) were distributed in 96-well plates and incubating in duplicate with escalating concentrations (10 nM to 3 μM) of compounds for 72 hr. Cell proliferation was measured using MTT (3 [4,5-dimethylthiazol-2-yl]-2,5-diphenyltetrazolium bromide).

BxPC-3 = assay: In vitro cell proliferation assay (MTT); type: cell-based; conditions: Homo sapiens, BXPC-3, 72 h
Method: as §4

H1975 = assay: In vitro cell proliferation assay (MTT); type: cell-based; conditions: Homo sapiens, NCI-H1975, 72 h
Method: as §4

HT29 = assay: In vitro cell proliferation assay (MTT); type: cell-based; conditions: Homo sapiens, HT-29, 72 h
Method: as §4

HUVEC = assay: In vitro cell proliferation assay (MTT); type: cell-based; conditions: Homo sapiens, 72 h
Method: as §4

HepG2 = assay: In vitro cell proliferation assay (MTT); type: cell-based; conditions: Homo sapiens, HepG2, 72 h
Method: as §4

MDA-MB-231 = assay: In vitro cell proliferation assay (MTT); type: cell-based; conditions: Homo sapiens, MDA-MB-231, 72 h
Method: as §4

PC-3 = assay: In vitro cell proliferation assay (MTT); type: cell-based; conditions: Homo sapiens, PC-3, 72 h
Method: as §4

HeLa = assay: In vitro cell proliferation assay (MTT); type: cell-based; conditions: Homo sapiens, 72 h
Method: as §4

HuCCT1 = assay: In vitro cell proliferation assay (MTT); type: cell-based; conditions: Homo sapiens, HuCCT-1, 72 h
Method: as §4

T11 sequence (P12931 whole entry): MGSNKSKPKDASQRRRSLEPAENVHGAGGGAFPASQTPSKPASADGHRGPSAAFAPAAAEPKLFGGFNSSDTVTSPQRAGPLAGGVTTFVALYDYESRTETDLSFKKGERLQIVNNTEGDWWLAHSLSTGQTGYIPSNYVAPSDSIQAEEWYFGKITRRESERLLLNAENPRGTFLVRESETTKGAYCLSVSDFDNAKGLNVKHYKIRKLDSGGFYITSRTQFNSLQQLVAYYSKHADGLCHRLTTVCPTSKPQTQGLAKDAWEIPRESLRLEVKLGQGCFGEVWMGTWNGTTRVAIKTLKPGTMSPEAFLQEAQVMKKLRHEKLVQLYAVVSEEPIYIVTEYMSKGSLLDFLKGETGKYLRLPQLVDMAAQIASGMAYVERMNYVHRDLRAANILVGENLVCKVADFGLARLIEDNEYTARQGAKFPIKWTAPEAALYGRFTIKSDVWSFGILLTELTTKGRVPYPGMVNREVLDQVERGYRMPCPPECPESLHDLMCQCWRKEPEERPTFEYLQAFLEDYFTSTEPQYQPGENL
T10 sequence (P09619 33-1106): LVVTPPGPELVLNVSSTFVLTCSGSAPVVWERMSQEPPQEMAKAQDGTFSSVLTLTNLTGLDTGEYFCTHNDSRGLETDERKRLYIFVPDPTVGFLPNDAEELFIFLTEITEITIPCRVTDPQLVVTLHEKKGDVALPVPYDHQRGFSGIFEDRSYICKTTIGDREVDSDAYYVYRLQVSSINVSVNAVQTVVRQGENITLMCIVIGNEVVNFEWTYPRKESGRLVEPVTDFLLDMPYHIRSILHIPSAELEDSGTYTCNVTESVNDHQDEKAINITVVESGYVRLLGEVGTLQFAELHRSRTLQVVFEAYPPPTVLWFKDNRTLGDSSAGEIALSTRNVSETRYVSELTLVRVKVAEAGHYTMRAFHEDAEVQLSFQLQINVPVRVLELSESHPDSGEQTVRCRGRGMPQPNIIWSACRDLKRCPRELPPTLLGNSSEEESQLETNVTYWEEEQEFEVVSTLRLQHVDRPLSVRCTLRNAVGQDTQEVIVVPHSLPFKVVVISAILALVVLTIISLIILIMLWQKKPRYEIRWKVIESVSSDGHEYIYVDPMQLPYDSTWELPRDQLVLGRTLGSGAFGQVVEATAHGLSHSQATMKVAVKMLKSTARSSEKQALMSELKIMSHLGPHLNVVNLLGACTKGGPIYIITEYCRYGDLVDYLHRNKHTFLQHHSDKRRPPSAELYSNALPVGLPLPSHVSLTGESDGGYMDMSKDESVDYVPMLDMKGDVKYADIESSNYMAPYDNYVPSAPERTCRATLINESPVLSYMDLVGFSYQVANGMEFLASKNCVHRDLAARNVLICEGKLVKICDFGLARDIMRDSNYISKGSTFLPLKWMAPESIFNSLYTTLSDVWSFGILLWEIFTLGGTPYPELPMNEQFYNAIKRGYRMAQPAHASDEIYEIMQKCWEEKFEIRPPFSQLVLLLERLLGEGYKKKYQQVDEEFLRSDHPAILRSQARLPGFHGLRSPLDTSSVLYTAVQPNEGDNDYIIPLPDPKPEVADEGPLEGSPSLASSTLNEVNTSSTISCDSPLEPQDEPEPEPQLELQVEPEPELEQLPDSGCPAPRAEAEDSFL
T9 sequence (P16234 24-1089): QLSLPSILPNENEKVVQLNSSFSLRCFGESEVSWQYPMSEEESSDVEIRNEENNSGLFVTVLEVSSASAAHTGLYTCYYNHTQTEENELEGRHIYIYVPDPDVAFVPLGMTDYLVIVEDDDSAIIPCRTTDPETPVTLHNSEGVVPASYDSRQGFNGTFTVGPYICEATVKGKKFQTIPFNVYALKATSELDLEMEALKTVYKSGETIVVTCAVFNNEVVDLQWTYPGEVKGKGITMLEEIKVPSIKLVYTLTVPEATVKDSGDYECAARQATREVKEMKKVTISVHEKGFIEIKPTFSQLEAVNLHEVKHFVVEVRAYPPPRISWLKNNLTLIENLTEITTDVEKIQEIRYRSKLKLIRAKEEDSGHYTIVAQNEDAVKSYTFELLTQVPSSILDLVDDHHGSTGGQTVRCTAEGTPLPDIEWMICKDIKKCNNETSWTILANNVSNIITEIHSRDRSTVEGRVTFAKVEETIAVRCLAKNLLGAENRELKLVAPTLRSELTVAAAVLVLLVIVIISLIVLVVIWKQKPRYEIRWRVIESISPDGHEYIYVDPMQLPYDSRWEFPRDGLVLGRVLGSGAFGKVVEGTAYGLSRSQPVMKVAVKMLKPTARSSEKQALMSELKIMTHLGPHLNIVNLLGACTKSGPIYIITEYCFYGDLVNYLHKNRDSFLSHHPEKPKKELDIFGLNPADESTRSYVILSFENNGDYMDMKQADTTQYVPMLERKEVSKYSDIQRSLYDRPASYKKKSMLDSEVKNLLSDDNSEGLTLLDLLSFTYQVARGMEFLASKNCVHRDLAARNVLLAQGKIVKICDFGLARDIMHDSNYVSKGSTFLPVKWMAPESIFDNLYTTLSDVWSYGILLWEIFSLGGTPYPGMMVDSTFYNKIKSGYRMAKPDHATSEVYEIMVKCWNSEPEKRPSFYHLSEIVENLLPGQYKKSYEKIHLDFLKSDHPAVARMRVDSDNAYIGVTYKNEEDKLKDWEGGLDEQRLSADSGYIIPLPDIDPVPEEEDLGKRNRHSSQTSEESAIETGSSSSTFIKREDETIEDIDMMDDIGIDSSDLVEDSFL
T12 sequence (P17948 27-1338): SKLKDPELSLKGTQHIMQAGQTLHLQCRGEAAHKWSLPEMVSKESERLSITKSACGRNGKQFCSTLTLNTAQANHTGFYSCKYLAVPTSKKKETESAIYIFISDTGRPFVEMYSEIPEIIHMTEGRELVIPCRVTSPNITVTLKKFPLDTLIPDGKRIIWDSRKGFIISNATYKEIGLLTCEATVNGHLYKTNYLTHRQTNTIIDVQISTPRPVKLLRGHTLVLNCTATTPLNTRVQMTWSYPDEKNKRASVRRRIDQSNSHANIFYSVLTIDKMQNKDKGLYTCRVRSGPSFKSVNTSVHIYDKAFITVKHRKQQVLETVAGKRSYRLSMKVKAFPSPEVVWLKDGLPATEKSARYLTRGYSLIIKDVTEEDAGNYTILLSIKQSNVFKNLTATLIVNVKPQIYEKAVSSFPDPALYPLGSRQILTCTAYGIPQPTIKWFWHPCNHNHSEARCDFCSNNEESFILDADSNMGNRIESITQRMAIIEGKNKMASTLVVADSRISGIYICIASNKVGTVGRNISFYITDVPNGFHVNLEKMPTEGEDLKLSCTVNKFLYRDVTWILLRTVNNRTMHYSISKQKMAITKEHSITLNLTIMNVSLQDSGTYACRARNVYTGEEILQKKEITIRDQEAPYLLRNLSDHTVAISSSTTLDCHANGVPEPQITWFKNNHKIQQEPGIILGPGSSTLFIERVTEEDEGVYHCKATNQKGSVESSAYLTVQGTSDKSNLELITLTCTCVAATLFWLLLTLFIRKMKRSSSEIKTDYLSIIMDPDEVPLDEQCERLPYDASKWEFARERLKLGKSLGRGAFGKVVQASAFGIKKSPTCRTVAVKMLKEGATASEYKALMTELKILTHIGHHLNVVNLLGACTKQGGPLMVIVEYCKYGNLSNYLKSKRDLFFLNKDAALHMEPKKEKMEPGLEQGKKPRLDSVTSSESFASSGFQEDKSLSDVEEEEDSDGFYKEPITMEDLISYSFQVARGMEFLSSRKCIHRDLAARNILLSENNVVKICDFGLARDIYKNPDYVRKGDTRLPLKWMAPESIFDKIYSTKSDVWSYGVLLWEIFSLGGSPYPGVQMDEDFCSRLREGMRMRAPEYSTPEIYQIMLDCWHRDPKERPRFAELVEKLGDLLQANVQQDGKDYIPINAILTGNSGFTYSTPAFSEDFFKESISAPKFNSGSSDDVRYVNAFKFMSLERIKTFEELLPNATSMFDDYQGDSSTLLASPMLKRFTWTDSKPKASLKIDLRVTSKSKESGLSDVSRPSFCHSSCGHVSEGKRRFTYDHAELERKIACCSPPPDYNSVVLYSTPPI
T7 sequence (P21802 22-821): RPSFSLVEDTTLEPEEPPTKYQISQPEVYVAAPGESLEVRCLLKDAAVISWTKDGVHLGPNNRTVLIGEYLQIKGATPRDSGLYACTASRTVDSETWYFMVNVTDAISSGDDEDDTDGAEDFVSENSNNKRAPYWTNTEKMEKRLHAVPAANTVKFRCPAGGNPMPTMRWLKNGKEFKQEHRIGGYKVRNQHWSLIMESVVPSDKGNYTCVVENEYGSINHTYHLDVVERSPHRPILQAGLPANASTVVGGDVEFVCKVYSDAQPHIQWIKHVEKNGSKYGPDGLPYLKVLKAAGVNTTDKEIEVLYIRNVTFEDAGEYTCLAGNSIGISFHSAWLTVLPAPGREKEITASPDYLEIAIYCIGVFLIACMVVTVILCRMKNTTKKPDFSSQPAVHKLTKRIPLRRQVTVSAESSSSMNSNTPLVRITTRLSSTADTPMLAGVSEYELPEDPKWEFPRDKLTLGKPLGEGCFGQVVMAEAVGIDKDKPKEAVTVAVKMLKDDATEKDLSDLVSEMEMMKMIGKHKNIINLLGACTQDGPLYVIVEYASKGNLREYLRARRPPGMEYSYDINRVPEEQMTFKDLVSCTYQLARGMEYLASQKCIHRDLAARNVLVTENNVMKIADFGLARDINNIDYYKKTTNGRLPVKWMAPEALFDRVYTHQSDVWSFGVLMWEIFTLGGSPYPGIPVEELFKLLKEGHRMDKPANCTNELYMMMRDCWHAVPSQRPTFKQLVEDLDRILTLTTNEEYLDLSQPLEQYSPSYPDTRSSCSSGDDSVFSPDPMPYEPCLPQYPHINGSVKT

COC(=O)c1cc2cc(NCc3cc(NC(=O)c4cc(N(C)C)cc(C(F)(F)F)c4)ccc3C)cnc2[nH]1 [OR0597]
inhibition at 10 µM (ABL): ≥ 50% | inhibition at 10 µM (ABL T315I): ≥ 50% | inhibition at 0.1 µM (BRAF): < 50% | inhibition at 0.1 µM (EGFR (ErbB1)): < 50% | inhibition at 0.1 µM (EGFR (ErbB1) T790M L858R): < 50% | inhibition at 0.1 µM (FGFR1): < 50% | inhibition at 0.1 µM (FGFR2): < 50% | inhibition at 0.1 µM (KDR (VEGFR2)): < 50% | inhibition at 0.1 µM (PDGFRA (PDGFR alpha)): < 50% | inhibition at 0.1 µM (PDGFRB): < 50% | inhibition at 0.1 µM (SRC): ≥ 50% | inhibition at 0.1 µM (VEGFR1): < 50% | pEC50 (A549): 6.00 to 7.00 | pEC50 (BxPC-3): 6.00 to 7.00 | pEC50 (H1975): 6.00 to 7.00 | pEC50 (HT29): 6.00 to 7.00 | pEC50 (HUVEC): 6.00 to 7.00 | pEC50 (HepG2): ≥ 7.00 | pEC50 (MDA-MB-231): ≥ 7.00 | pEC50 (PC-3): ≤ 6.00

COC(=O)c1cc2cc(NCc3cc(NC(=S)c4ccc(CN5CCN(C)CC5)c(C(F)(F)F)c4)ccc3C)cnc2[nH]1 [OR0626]
inhibition at 0.1 µM (BRAF): < 50% | inhibition at 0.1 µM (EGFR (ErbB1)): ≥ 50% | inhibition at 0.1 µM (FGFR2): ≥ 50% | inhibition at 0.1 µM (KDR (VEGFR2)): < 50% | pEC50 (A549): ≤ 6.00 | pEC50 (HUVEC): ≤ 6.00 | pEC50 (HeLa): ≤ 6.00 | pEC50 (HepG2): ≤ 6.00 | pEC50 (MDA-MB-231): 6.00 to 7.00

COC(=O)c1cc2cc(NCc3cc(NC(=O)c4ccc5c(c4)OCO5)ccc3C)cnc2[nH]1 [OR0615]
inhibition at 10 µM (ABL): ≥ 50% | inhibition at 10 µM (ABL T315I): < 50% | inhibition at 0.1 µM (BRAF): ≥ 50% | inhibition at 0.1 µM (EGFR (ErbB1)): < 50% | inhibition at 0.1 µM (EGFR (ErbB1) T790M L858R): < 50% | inhibition at 0.1 µM (FGFR1): < 50% | inhibition at 0.1 µM (FGFR2): < 50% | inhibition at 0.1 µM (KDR (VEGFR2)): ≥ 50% | inhibition at 0.1 µM (PDGFRA (PDGFR alpha)): ≥ 50% | inhibition at 0.1 µM (PDGFRB): ≥ 50% | inhibition at 0.1 µM (SRC): ≥ 50% | inhibition at 0.1 µM (VEGFR1): < 50% | pEC50 (A549): ≤ 6.00 | pEC50 (BxPC-3): ≤ 6.00 | pEC50 (H1975): ≤ 6.00 | pEC50 (HT29): ≤ 6.00 | pEC50 (HUVEC): 6.00 to 7.00 | pEC50 (HepG2): ≤ 6.00 | pEC50 (HuCCT1): ≤ 6.00

COC(=O)c1cc2cc(NCc3cc(NC(=S)Nc4cccc(C(F)(F)F)c4)ccc3C)cnc2[nH]1 [OR1016]
inhibition at 0.1 µM (BRAF): < 50% | inhibition at 0.1 µM (EGFR (ErbB1)): < 50% | inhibition at 0.1 µM (KDR (VEGFR2)): < 50% | pEC50 (A549): ≤ 6.00 | pEC50 (HUVEC): ≤ 6.00 | pEC50 (HeLa): ≤ 6.00 | pEC50 (HepG2): 6.00 to 7.00 | pEC50 (MDA-MB-231): 6.00 to 7.00

COC(=O)c1cc2cc(NC(=O)c3cccc(CNC(=S)c4cccc(C(F)(F)F)c4)c3)cnc2[nH]1 [OR1011]
inhibition at 0.1 µM (BRAF): < 50% | inhibition at 0.1 µM (EGFR (ErbB1)): < 50% | inhibition at 0.1 µM (FGFR2): < 50% | inhibition at 0.1 µM (KDR (VEGFR2)): < 50% | inhibition at 0.1 µM (PDGFRA (PDGFR alpha)): < 50% | pEC50 (A549): ≤ 6.00 | pEC50 (HUVEC): ≤ 6.00 | pEC50 (HeLa): ≤ 6.00 | pEC50 (HepG2): ≤ 6.00 | pEC50 (MDA-MB-231): ≤ 6.00

COC(=O)c1cc2cc(NCc3cc(NC(=O)c4cc(Nc5cc[nH]n5)cc(C(F)(F)F)c4)ccc3C)cnc2[nH]1 [OR0642]
inhibition at 10 µM (ABL): ≥ 50% | inhibition at 10 µM (ABL T315I): ≥ 50% | inhibition at 0.1 µM (BRAF): < 50% | inhibition at 0.1 µM (EGFR (ErbB1)): ≥ 50% | inhibition at 0.1 µM (EGFR (ErbB1) T790M L858R): < 50% | inhibition at 0.1 µM (FGFR1): < 50% | inhibition at 0.1 µM (FGFR2): < 50% | inhibition at 0.1 µM (KDR (VEGFR2)): < 50% | inhibition at 0.1 µM (PDGFRA (PDGFR alpha)): < 50% | inhibition at 0.1 µM (PDGFRB): < 50% | inhibition at 0.1 µM (SRC): ≥ 50% | inhibition at 0.1 µM (VEGFR1): < 50% | pEC50 (A549): 6.00 to 7.00 | pEC50 (BxPC-3): 6.00 to 7.00 | pEC50 (H1975): ≤ 6.00 | pEC50 (HT29): 6.00 to 7.00 | pEC50 (HUVEC): ≥ 7.00 | pEC50 (HepG2): ≥ 7.00 | pEC50 (MDA-MB-231): ≥ 7.00 | pEC50 (PC-3): ≤ 6.00
